Here are results for seven compounds from patent US5023266A, “Method of treatment of psychotic disorders” (Synthelabo, priority 1989, dated 1991).

pIC50: −log10 of the molar value.

The target in the experiment is σ-receptor. The experiment in a line: Inhibition of [3H]-(+)-3-PPP binding to the σ-receptor in rat cerebral cortex membranes. The following applies: 2nM [3H]-(+)-3-PPP, 90 min at 25° C., non-specific binding defined with 1μM haloperidol, read-out: IC50, concentration which inhibits 50 percent of the [3H]-(+)-3-PPP binding. How it is done:
In particular their inhibitory activity on the binding of [^3 H](+)3(3-hydroxyphenyl)-N-(1-propyl)-piperidine, or [^3 H]-(+)-3-PPP, to the σ-receptor in the cerebral cortex of rats has been studied, essentially as described in J. Pharmacol. Exp. Ther., 238, 739-748, (1986). Male Sprague-Dawley rats (150-200 g) were sacrificed, and the cerebral cortex was homogenized in 25 volumes of ice-cold Tris-HCl buffer (pH 7.4 at 25° C.) with the use of an Ultra-Turrax™ polytron. The homogenate was washed twice by centrifugation (10 min at 45,000g) and intermittent resuspension of the resulting pellet in fresh buffer. The final pellet was resuspended in 20 volumes of 50mM Tris-HCl buffer (pH 8.0 at 22° C.). A 75 μl aliquot of this membrane preparation was then incubated in a final volume of 250 μl with 2nM [^3 H]-(+)-3-PPP (specific activity 90 Ci/mmol; New England Nuclear) for 90 min at 25° C., in the absence or in the presence of competing drugs. After incubation, the membranes were recovered by filtration over 0.05% polyethyleneimine-pretreated Whatman™ GF/B filters using a Skatron™ Cell Harvester, and washed with ±2.5 ml of ice-cold 50mM Tris-HCl buffer (pH 7.7 at 0° C.). Non-specific binding was defined with 1μM haloperidol.
Data were analyzed by conventional graphical techniques and least-squares regression analysis where appropriate.
The following Table indicates the IC50 of the compounds, i.e. the concentration (μM) which inhibits 50 percent of the [^3 H]-(+)-3-PPP.

`C[C@@H]([C@H](O)c1ccc(O)cc1)N1CCC(Cc2ccccc2)CC1` (single isomer, unassigned) [Compound 4]: the pIC50 was 8.15.
Take `C[C@@H]([C@H](O)c1ccc(O)cc1)N1CCC(Cc2ccccc2)CC1` (relative stereo) [Compound 1]: the pIC50 was 8.10.
Then `C[C@@H]([C@H](O)c1ccc(O)cc1)N1CCC(Cc2ccccc2)CC1` (single isomer, unassigned) [Compound 3], with 7.82; and `OC(CN1CCC(Cc2ccc(F)cc2)CC1)c1ccc(Cl)cc1` (single isomer, unassigned) [Compound 7], with 8.01.
As to `OC(CN1CCC(Cc2ccc(F)cc2)CC1)c1ccc(Cl)cc1` (racemic) [Compound 5], the pIC50 is 8.52.
Then `C[C@H]([C@H](O)c1ccc(O)cc1)N1CCC(Cc2ccccc2)CC1` (relative stereo) [Compound 2], with 8.00; and `OC(CN1CCC(Cc2ccc(F)cc2)CC1)c1ccc(Cl)cc1` (single isomer, unassigned) [Compound 6], with 8.04.
